Laboratory results reported in PubChem BioAssay AID849 (SRMLSC, 2007).
Calls of active or inactive are those of the source. No rule for the calls is given here.

System: Saccharomyces cerevisiae lifespan shortening, growth inhibition
Test: Saccharomyces cerevisiae growth inhibition potency – dose response (AID 849);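 also: yeast growth read as optical density after two days at 30 degrees C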

Cc1cccc(-c2nnc3sc(-c4ccccc4C)nn23)c1
IC50: > 100 µM (inactive)

Cc1cc(C)c2c(N=NN3CCCCC3)[nH]nc2n1
IC50: 5.02 µM

Cc1ccc(N/N=C(\C#N)C(N)=S)c(C)c1
IC50: > 100 µM (inactive)

COc1ccc(-c2cc(C(=O)N3CCN(c4ncccn4)CC3)c3ccccc3n2)c(OC)c1
IC50: 49.8 µM

CCN(CC)c1ccc(S(=O)(=O)N2CCOCC2)cc1NC(=O)CSc1cccc[n+]1[O-]
IC50: 16.7 µM

Oc1ccc(Cl)cc1Cc1cc(Cl)ccc1O
IC50: 21 µM

COc1ccc(-n2c(Cc3cccn3C)nnc2SCC(=O)N2CCCC2)cc1
IC50: > 100 µM (inactive)

NC(N)=N/N=C/c1ccc(OCc2ccc(Cl)cc2)cc1
IC50: 48.4 µM

COC(=O)c1ccc(CSc2ccc3nnc(-c4cccc(F)c4)n3n2)o1
IC50: > 100 µM (inactive)

O=[N+]([O-])c1ccccc1-c1cc(-c2cc(Cl)ccc2O)n[nH]1
IC50: > 100 µM (inactive)

OC(CNCCC1C=Nc2ccccc21)Cn1c2ccc(Cl)cc2c2cc(Cl)ccc21 (stereo not drawn)
IC50: 20 µM

CC1/C(=N/O)CC(c2ccccc2)N(C)C1c1ccccc1 (stereo not drawn)
IC50: > 100 µM (inactive)

CCOC(=O)c1c(/N=C/c2cc([N+](=O)[O-])ccc2O)sc(C)c1C
IC50: 47.1 µM

CCCCCCCOC(=O)C[N+](C)(C)CCOC1CC2CCC1(C)C2(C)C (stereo not drawn)
IC50: 28.4 µM

Cc1cc(=O)[nH]c(SCc2nc3ccccc3s2)n1
IC50: > 100 µM (inactive)

O=S(=O)(Nc1ccc(-n2cccc2)cc1)c1ccc(Cl)cc1Cl
IC50: > 100 µM (inactive)

Cc1c(C(=O)O)cccc1-c1ccc(/C=N/Nc2ccc(Br)cc2)o1
IC50: > 100 µM (inactive)

Cc1ccc(O)c(C(=O)CC(=O)c2cccc(F)c2)c1
IC50: > 100 µM (inactive)

COc1ccccc1N1CCN(C(CNC(=O)c2ccco2)c2cccnc2)CC1 (stereo not drawn)
IC50: > 100 µM (inactive)

O=C1C=C(c2ccccc2)C(=O)N1Nc1ccccc1
IC50: 12 µM

COc1ccc(/C=C/C(=O)c2cc(Br)ccc(=O)c2O)cc1
IC50: 12.6 µM

C=C(C)COc1ccc(-c2[nH]ncc2-c2ccccc2)c(O)c1
IC50: 20.4 µM

O=[N+]([O-])c1cc(/C=N/O)ccc1Sc1ccccc1
IC50: > 100 µM (inactive)

Nc1ccc(O)c2c1C(=O)c1ccccc1C2=O
IC50: 28.1 µM

Cc1cccnc1Nc1nc(-c2ccccn2)cs1
IC50: 45.7 µM

O=C(OCn1ncc(Cl)c(Cl)c1=O)c1ccc(F)cc1
IC50: > 100 µM (inactive)

CC(=O)c1c(C)oc2c1C(=O)c1ccccc1C2=O
IC50: > 100 µM (inactive)

c1ccc2c(c1)nnn1c3ccccc3nc21
IC50: > 100 µM (inactive)

C=CCc1c(C)c(C#N)c2nc3ccccc3n2c1NCCN(C)C
IC50: 44.5 µM

CCOc1ccc(/C=C/[N+](=O)[O-])c2ccccc12
IC50: > 100 µM (inactive)

Cc1ccc2nc(-c3ccc(NS(C)(=O)=O)cc3)cc(-c3ccccc3)c2c1
IC50: 43.2 µM

COc1ccc(CCNC(=O)c2cnn3c(C(F)F)cc(C)nc23)cc1OC
IC50: > 100 µM (inactive)

OC(CN1CCN(c2ccccn2)CC1)Cn1c2ccc(Cl)cc2c2cc(Cl)ccc21 (stereo not drawn)
IC50: 47.5 µM

O=C1C(=O)c2c(C(=O)c3ccccc3)coc2-c2ccccc21
IC50: 13.4 µM

C=CCNC1=C(Cl)C(=O)c2ccccc2C1=O
IC50: > 100 µM (inactive)

c1ccc(-c2nc3nonc3nc2-c2ccccc2)cc1
IC50: > 100 µM (inactive)

CC1(CCc2ccccc2)NC(=S)N(c2ccc(Cl)cc2)N1 (stereo not drawn)
IC50: 42 µM

O=C(Nc1cccc(N=Cc2cc(Cl)cc(Br)c2O)c1)c1ccco1
IC50: > 100 µM (inactive)

Cc1cc(N2CCN(C(=O)c3ccco3)CC2)n2ncc(-c3ccccc3)c2n1
IC50: > 100 µM (inactive)

Cc1cc(C)nc(/N=c2/ssnc2Cl)c1
IC50: > 100 µM (inactive)

CCCCc1ccc(NS(=O)(=O)c2cccs2)cc1
IC50: 35.3 µM

COc1cc(CNCCN2CCOCC2)ccc1OCc1cccc(Cl)c1
IC50: > 100 µM (inactive)

Cn1cccc1Cc1nnc(SCC(=O)Nc2nccs2)n1CCc1ccccc1
IC50: > 100 µM (inactive)

CCOC(=O)c1sc(=S)n(-c2cc(F)ccc2F)c1N
IC50: > 100 µM (inactive)

Cc1cccc(Nc2nc(-c3ccccn3)cs2)n1
IC50: 20.3 µM

O=C(OCn1ncc(Cl)c(Cl)c1=O)c1cccc(C(F)(F)F)c1
IC50: > 100 µM (inactive)

COc1ccc(-c2[nH]ncc2-c2ccc(Cl)cc2)c(O)c1
IC50: > 100 µM (inactive)

O=c1c2ccccc2nc2sc3ccccc3n12
IC50: 27.8 µM

O=C(Cc1cccs1)NNC(=S)NC(=O)c1ccccc1
IC50: > 100 µM (inactive)

Clc1ccc(N=c2ssnc2Cl)cc1
IC50: 25.6 µM

COc1ccccc1OCCCc1c(C)n[nH]c1C
IC50: 8.78 µM

COc1ccc2c(C)nc(Nc3nc(C)c(C)c(=O)[nH]3)nc2c1
IC50: 15 µM

Cc1cc(C(=O)COC(=O)c2ccc[nH]c2=O)c(C)n1-c1ccc(Br)cc1
IC50: > 100 µM (inactive)

Cc1nn(-c2ccc(F)cc2)c2sc(C(=O)O)cc12
IC50: 30.9 µM

Oc1c(Br)cc(Br)cc1/C=N/c1nc2c(s1)CCCC2
IC50: 17.5 µM

c1cnc2c(c1)ccc1cccnc12
IC50: 13.3 µM

Cc1nc(N/N=C/c2ccccn2)sc1C
IC50: 33.7 µM

CCCCOC(=O)n1c(=S)oc2cc(Cl)ccc21
IC50: 16.5 µM

CCCCCCCCCCCCCCCC[n+]1cccc2ccccc21
IC50: 0.783 µM

Cc1ccc(CNC(=O)c2ccc(Cn3nc(C)c(Cl)c3C)o2)cc1
IC50: 12.4 µM

C/C(=N\Nc1ccc([N+](=O)[O-])cc1)c1ccc(N)cc1
IC50: 40.2 µM

c1ccc(-c2ccc(OCCCn3cncn3)cc2)cc1
IC50: > 100 µM (inactive)

O=C1c2cccc3c(Cl)ccc(c23)C(=O)N1O
IC50: 21.7 µM

Cc1ccc(N2NC(C)(c3cccs3)NC2=S)cc1 (stereo not drawn)
IC50: > 100 µM (inactive)

O=S(=O)(/N=C(\Sc1ccc(Cl)cc1)c1ccccc1)c1ccccc1
IC50: 49.2 µM

Cc1ccc(C)c(/C=C/C(=O)c2ccccc(=O)c2O)c1
IC50: 6.4 µM

CCc1ccc(S(=O)(=O)NCCc2cn3ccsc3n2)s1
IC50: > 100 µM (inactive)

CCN1/C(=C/c2ccc3cc(C)ccc3[n+]2CC)Sc2ccccc21
IC50: 4.48 µM

OC(CNCC1CCCO1)Cn1c2ccc(Br)cc2c2cc(Br)ccc21 (stereo not drawn)
IC50: > 100 µM (inactive)

S=C1SCN(Cc2ccccn2)CN1Cc1ccco1
IC50: 21.3 µM

Cc1ccc(/C=C2\C(=O)Nc3ccccc32)o1
IC50: > 100 µM (inactive)

c1ccc(-n2c(-c3ccco3)nnc2-c2ccco2)cc1
IC50: > 100 µM (inactive)

Cc1ccc(NC(=S)Nc2ccc(Cl)c(Cl)c2)c(OC(F)F)c1
IC50: 22.2 µM

Cc1cc(C)c2c(N=NN(C)C)[nH]nc2n1
IC50: 12.2 µM

Nc1ccc(C(=O)OCC(=O)Nc2ccc3c(c2)OCO3)cc1[N+](=O)[O-]
IC50: > 100 µM (inactive)

CC(=O)N1c2ccccc2C2(O)N=C(C)SC12 (stereo not drawn)
IC50: > 100 µM (inactive)

O=C(C1=C(O)/C(=C/c2ccc(O)cc2)CCC1)C(F)(F)F
IC50: > 100 µM (inactive)

CCCCCCCCCCCCCCCC[n+]1ccc(C(N)=O)cc1
IC50: 1.1 µM

Cc1nnc(C)n1/N=C/c1cc(Br)cc(Br)c1O
IC50: 9.23 µM

O=C(Nc1ccc(Cl)cc1)ON=C1CCCC1
IC50: 3.69 µM

COc1ccc(C(=O)C(C)(C)NO)cc1
IC50: 33.7 µM

C/C(=N\Nc1ccc(Cl)c(Cl)c1)c1ccc(-n2ccnc2)cc1
IC50: 30.1 µM

c1ccc(Cc2nnc3sc(-c4ccco4)nn23)cc1
IC50: > 100 µM (inactive)

CCCS(=O)(=O)c1nnnn1-c1cccc(OC)c1
IC50: 3.4 µM

COc1ccc(-c2nnc3c4ccccc4c(C)nn23)cc1
IC50: > 100 µM (inactive)

OCc1ccnc2c(O)cccc12
IC50: > 100 µM (inactive)

COc1ccccc1N1CCN(Cc2cc(Br)c(O)c3ncccc23)CC1
IC50: 15.8 µM

Oc1c(Cl)cc(Cl)c(Cl)c1Cc1c(O)c(Cl)cc(Cl)c1Cl
IC50: > 100 µM (inactive)

CCCn1c(C(C)NC(C)=O)nc2ccccc21 (stereo not drawn)
IC50: > 100 µM (inactive)

COc1cc(/C=C2\C(=O)ON=C2c2ccccc2)cc(OC)c1OC
IC50: 18.5 µM

O=C(N/N=C/c1cc2c3c(c1O)CCCN3CCC2)c1ccccc1O
IC50: 37.5 µM

CCc1cc2c(cc(C(=O)O)n2C)s1
IC50: 38.2 µM

O=C1NC(=S)N(c2ccccc2F)C(=O)/C1=C\c1cccs1
IC50: 18.6 µM

CC(C)Sc1nc(N)nc(-c2cccs2)c1C#N
IC50: > 100 µM (inactive)

O=C(O)CCC(=O)N1CCN(c2nc(-c3ccccc3Cl)c3cc(Br)ccc3n2)CC1
IC50: 29.3 µM

O=C(Cc1ccccc1)NCCc1cn2ccsc2n1
IC50: > 100 µM (inactive)

CCOC(=O)c1c(N)sc(C(O)(C(F)(F)F)C(F)(F)F)c1-c1ccc(F)cc1
IC50: > 100 µM (inactive)

Oc1c(CN2CCCCC2)cc(Br)c2cccnc12
IC50: 11.2 µM

Cc1cc2nc(C)n3c4ccccc4nc3n2n1
IC50: 15.4 µM

Cn1c(=O)c2nc(-c3ccccc3)oc2c2ccccc21
IC50: > 100 µM (inactive)

CC1=CC(=O)c2ccccc2C1=O
IC50: 18.5 µM

O=C(O)c1ccc(N(c2ccccc2)c2ccccc2)cc1
IC50: > 100 µM (inactive)

CC1(C)C[C@H]2C=C(C=O)[C@]3(C=O)C[C@]3(C)[C@H]2C1
IC50: 5.25 µM

c1cn2cc(-c3ccc4c(c3)OCO4)nc2s1
IC50: > 100 µM (inactive)

C=CCn1c2ccccc2c2nnc(SCN3C(=O)c4ccccc4C3=O)nc21
IC50: > 100 µM (inactive)

Cc1ccc(-c2[nH]nc(N)c2N=Nc2ccccc2C)cc1
IC50: > 100 µM (inactive)

O=C1c2ccccc2C(=O)c2c1cccc2N1CCOCC1
IC50: 46.6 µM

Cc1ccc2c(c1)c1c(n2C)-c2[nH]ncc2CC1
IC50: 35.3 µM

CCC(=O)c1c(O)n(C2CCCCCC2)c(=O)[nH]c1=O
IC50: 23.4 µM

O=Cc1c(Sc2ccccc2)nc2ccccn2c1=O
IC50: 29 µM

Cc1cc(/C=N/n2cnnc2)c(C)n1-c1ccc(OCc2ccc(Cl)cc2Cl)cc1
IC50: > 100 µM (inactive)

O=c1c2c([N+](=O)[O-])cc([N+](=O)[O-])cc2sn1-c1ccc(Br)cc1
IC50: > 100 µM (inactive)

O=C1c2ccccc2C(=O)N1Cc1ccco1
IC50: > 100 µM (inactive)

Cc1oc(-c2ccc3c(c2)OCCO3)cc1C(=O)O
IC50: 16.8 µM

Nc1[nH]c(=O)ncc1F
IC50: 11.8 µM

Cc1cc(C(=O)N/N=C/c2cccc([N+](=O)[O-])c2O)n[nH]1
IC50: > 100 µM (inactive)

CCCn1c(Nc2nc3ccccc3n2C)nc2ccccc21
IC50: 43.3 µM

CCOCCCNC(=O)c1ccc(Br)cc1
IC50: > 100 µM (inactive)
